Measured values published in patent publication US9499550B2 (BRISTOL-MYERS SQUIBB COMPANY, priority 2012, dated 2016).
Read-outs that look alike come from different tables or passages of the source.

Key:
[1] = tested on: HCV genotype 1a (H77 strain) replicon in HUH-7 cells; assay: HCV replicon luciferase reporter assay, genotype 1a; type: cell-based; conditions: Hepatitis C virus, Huh-7, 72 h, 3 days incubation, read-out: LE_1a (EC50, range)
Outline: (§1)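 Replicon inhibition for both genotypes was measured as Renilla luciferase signal (EnduRen, 7.5 μM final, 2 h) after 3-day, 37° C exposure of replicon-bearing HUH-7 cells in 4% FCS DMEM, 0.5% DMSO. The 1b construct carries S1179I; the 1a H77 construct carries P1496L and S2204I. Twenty-point, 3-fold dilutions were fitted four-parametrically for EC50, and CC50 was taken from multiplexed Cell Titer-Blue.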

[2] = tested on: HCV genotype 1b (Con1) replicon in HUH-7 cells; assay: HCV replicon luciferase reporter assay, genotype 1b; type: cell-based; conditions: Hepatitis C virus, Huh-7, 72 h, 3 days incubation, read-out: LE_1b (EC50, range)
Outline: as §1

[3] = HCV genotype 1a replicon luciferase
[4] = HCV genotype 1b replicon luciferase
[5] = HCV genotype 1a replicon luciferase assay, range class
[6] = HCV genotype 1b replicon luciferase assay, range class

CCOc1nnc(O[C@@H]2C[C@H]3C(=O)N[C@]4(C(=O)NS(=O)(=O)C5CC5)C[C@H]4/C=C\CC[C@H](C)C[C@@H](CC)[C@H](NC(=O)OC(C)(C)C(F)(F)F)C(=O)N3C2)c2ccccc12 [Compound 5044, 1,1,1-trifluoro-2-methylpropan-2-yl((2R,6S,7R,9S,13aS,14aR,16aS,Z)-14a-((cyclopropylsulfonyl)carbamoyl)-2-((4-ethoxyphthalazin-1-yl)oxy)-7-ethyl-9-methyl-5,16-dioxo-1,2,3,5,6,7,8,9,10,11,13a,14,14a,15,16,16a-hexadecahydrocyclopropa[e]pyrrolo[1,2-a][1,4]diazacyclopentadecin-6-yl)carbamate]
EC50 [1, 3]: 4.82 to 103 nM
EC50 [2, 4]: 4.82 to 103 nM

CC[C@@H]1C[C@H](C)CC/C=C\[C@@H]2C[C@@]2(C(=O)NS(=O)(=O)C2(CF)CC2)NC(=O)[C@@H]2C[C@@H](Oc3nc4c(c5cc(OC)ccc35)CCCO4)CN2C(=O)[C@H]1NC(=O)OC(C)(C)C(C)(F)F [Compound 6088, 3,3-difluoro-2-methylbutan-2-yl((2R,6S,7R,9R,13aS,14aR,16aS,Z)-7-ethyl-14a-(((1-(fluoromethyl)cyclopropyl)sulfonyl)carbamoyl)-2-((9-methoxy-2,3-dihydro-1H-pyrano[2,3-c]isoquinolin-6-yl)oxy)-9-methyl-5,16-dioxo-1,2,3,5,6,7,8,9,10,11,13a,14,14a,15,16,16a-hexadecahydrocyclopropa[e]pyrrolo[1,2-a][1,4]diazacyclopentadecin-6-yl)carbamate]
EC50 [1, 3]: 5.01 to 35 nM
EC50 [2, 4]: 5.01 to 35 nM

CCOc1cnc(O[C@@H]2C[C@H]3C(=O)N[C@]4(C(=O)NS(=O)(=O)C5(C)CC5)C[C@H]4/C=C\CC[C@@H](C)C[C@@H](C)[C@H](NC(=O)O[C@H](C)C(F)(F)F)C(=O)N3C2)c2ccccc12 [Compound 4066, (R)-1,1,1-trifluoropropan-2-yl (2R,6S,7R,9R,13aS,14aR,16aS,Z)-2-(4-ethoxyisoquinolin-1-yloxy)-7,9-dimethyl-14a-(1-methylcyclopropylsulfonylcarbamoyl)-5,16-dioxo-1,2,3,5,6,7,8,9,10,11,13a,14,14a,15,16,16a-hexadecahydrocyclopropa[e]pyrrolo[1,2-a][1,4]diazacyclopentadecin-6-ylcarbamate]
EC50 [1, 3]: < 5.46 nM
EC50 [2, 4]: < 5.46 nM

COc1ccc2c(O[C@@H]3C[C@H]4C(=O)N[C@]5(C(=O)NS(=O)(=O)C6(C)CC6)C[C@H]5/C=C\CC[C@@H](C)C[C@@H](C)[C@H](NC(=O)c5ccn(C)c(=O)c5)C(=O)N4C3)ncc(OC)c2c1 [Compound 4143, (2R,6S,7R,9R,13aS,14aR,16aS,Z)-2-(4,6-dimethoxyisoquinolin-1-yloxy)-7,9-dimethyl-6-(1-methyl-2-oxo-1,2-dihydropyridine-4-carboxamido)-N-(1-methylcyclopropylsulfonyl)-5,16-dioxo-1,2,3,5,6,7,8,9,10,11,13a,14,14a,15,16,16a-hexadecahydrocyclopropa[e]pyrrolo[1,2-a][1,4]diazacyclopentadecine-14a-carboxamide]
EC50 [1, 3]: 4.82 to 103 nM
EC50 [2, 4]: 4.82 to 103 nM

COc1ccc2c(O[C@@H]3C[C@H]4C(=O)N[C@]5(C(=O)NS(=O)(=O)C6(CF)CC6)C[C@H]5/C=C\CC[C@@H](C)C[C@@H](C)[C@H](NC(=O)OC(C)(C)C(F)(F)F)C(=O)N4C3)nc(N(C)C)nc2c1 [Compound 3010, 1,1,1-trifluoro-2-methylpropan-2-yl((2R,6S,7R,9R,13aS,14aR,16aS,Z)-2-((2-(dimethylamino)-7-methoxyquinazolin-4-yl)oxy)-14a-(((1-(fluoromethyl)cyclopropyl)sulfonyl)carbamoyl)-7,9-dimethyl-5,16-dioxo-1,2,3,5,6,7,8,9,10,11,13a,14,14a,15,16,16a-hexadecahydrocyclopropa[e]pyrrolo[1,2-a][1,4]diazacyclopentadecin-6-yl)carbamate]
EC50 [1, 5]: < 5.46 nM
EC50 [2, 6]: < 5.46 nM

COCCOc1cnc(O[C@@H]2C[C@H]3C(=O)N[C@]4(C(=O)NS(=O)(=O)C5(C)CC5)C[C@H]4/C=C\CC[C@H](C)C[C@@H](C)[C@H](NC(=O)OC4COC4)C(=O)N3C2)c2ccc(OC)cc12 [Compound 1156, oxetan-3-yl((2R,6S,7R,9S,13aS,14aR,16aS,Z)-2-((6-methoxy-4-(2-methoxyethoxyl)isoquinolin-1-yl)oxy)-7,9-dimethyl-14a-(((1-methylcyclopropyl)sulfonyl)carbamoyl)-5,16-dioxo-1,2,3,5,6,7,8,9,10,11,13a,14,14a,15,16,16a-hexadecahydrocyclopropa[e]pyrrolo[1,2-a][1,4]diazacyclopentadecin-6-yl)carbamate]
EC50 [1, 5]: 4.82 to 103 nM
EC50 [2, 6]: 4.82 to 103 nM

C[C@@H]1CC/C=C\[C@@H]2C[C@@]2(C(=O)NS(=O)(=O)C2(CF)CC2)NC(=O)[C@@H]2C[C@@H](Oc3ncc(N4CCOCC4)c4ccccc34)CN2C(=O)[C@@H](NC(=O)OC(C)(C)C)[C@H](C)C1 [Compound 5443, tert-butyl ((2R,6S,7R,9R,13aS,14aR,16aS,Z)-14a-(((1-(fluoromethyl)cyclopropyl)sulfonyl)carbamoyl)-7,9-dimethyl-2-((4-morpholinoisoquinolin-1-yl)oxy)-5,16-dioxo-1,2,3,5,6,7,8,9,10,11,13a,14,14a,15,16,16a-hexadecahydrocyclopropa[e]pyrrolo[1,2-a][1,4]diazacyclopentadecin-6-yl)carbamate]
EC50 [1, 3]: 1.01 to 5 nM
EC50 [2, 4]: 0.51 to 1 nM

C[C@H]1CC/C=C\[C@@H]2C[C@@]2(C(=O)NS(=O)(=O)C2(C)CC2)NC(=O)[C@@H]2C[C@@H](Oc3nccc4c5c(ccc34)N(C)CCO5)CN2C(=O)[C@@H](NC(=O)NC(C)(C)C)[C@H](C)C1 [Compound 5301, (2R,6S,7R,9S,13aS,14aR,16aS,Z)-6-(3-(tert-butyl)ureido)-7,9-dimethyl-2-((4-methyl-3,4-dihydro-2H-[1,4]oxazino[2,3-f]isoquinolin-7-yl)oxy)-N-((1-methylcyclopropyl)sulfonyl)-5,16-dioxo-1,2,3,5,6,7,8,9,10,11,13a,14,14a,15,16,16a-hexadecahydrocyclopropa[e]pyrrolo[1,2-a][1,4]diazacyclopentadecine-14a-carboxamide]
EC50 [1, 3]: 4.82 to 103 nM
EC50 [2, 4]: < 5.46 nM

CCn1nc(O[C@@H]2C[C@H]3C(=O)N[C@]4(C(=O)NS(=O)(=O)C5(CF)CC5)C[C@H]4/C=C\CC[C@H](C)C[C@@H](C)[C@H](NC(=O)OC(C)(C)C(F)(F)F)C(=O)N3C2)c2ccccc2c1=O [Compound 5077]
EC50 ([1]; GETYPE1A, HCV genotype 1a replicon luciferase): 4.82 to 103 nM
EC50 ([2]; GETYPE1B, HCV genotype 1b replicon luciferase): 4.82 to 103 nM

COc1ccc2c(O[C@@H]3C[C@H]4C(=O)N[C@]5(C(=O)NS(=O)(=O)C6CC6)C[C@H]5/C=C\CC[C@@H](C)C[C@@H](C)[C@H](NC(=O)OC5C[C@@H]6C[C@@H]6C5)C(=O)N4C3)nc(-c3ccc(OC(C)C)nc3)cc2c1 (stereo partly drawn) [Compound 5219, (1R,3r,5S)-bicyclo[3.1.0]hexan-3-yl((2R,6S,7R,9R,13aS,14aR,16aS,Z)-14a-((cyclopropylsulfonyl)carbamoyl)-2-((3-(6-isopropoxypyridin-3-yl)-6-methoxyisoquinolin-1-yl)oxy)-7,9-dimethyl-5,16-dioxo-1,2,3,5,6,7,8,9,10,11,13a,14,14a,15,16,16a-hexadecahydrocyclopropa[e]pyrrolo[1,2-a][1,4]diazacyclopentadecin-6-yl)carbamate]
EC50 [1, 3]: < 5.46 nM
EC50 [2, 4]: < 5.46 nM

COc1ccc2c(O[C@@H]3C[C@H]4C(=O)N[C@]5(C(=O)NS(=O)(=O)C6(C)CC6)C[C@H]5/C=C\CC[C@H](C)C[C@@H](C)[C@H](NC(=O)O[C@H](C)C(F)(F)F)C(=O)N4C3)nc(N(C)C)cc2c1 [Compound 3112, (R)-1,1,1-trifluoropropan-2-yl ((2R,6S,7R,9S,13aS,14aR,16aS,Z)-2-((3-(dimethylamino)-6-methoxyisoquinolin-1-yl)oxy)-7,9-dimethyl-14a-(((1-methylcyclopropyl)sulfonyl)carbamoyl)-5,16-dioxo-1,2,3,5,6,7,8,9,10,11,13a,14,14a,15,16,16a-hexadecahydrocyclopropa[e]pyrrolo[1,2-a][1,4]diazacyclopentadecin-6-yl)carbamate]
EC50 [1, 5]: 4.82 to 103 nM
EC50 [2, 6]: 4.82 to 103 nM

COc1ccc2c(O[C@@H]3C[C@H]4C(=O)N[C@]5(C(=O)NS(=O)(=O)C6CC6)C[C@H]5/C=C\CC[C@@H](C)C[C@@H](C)[C@H](NC(=O)O[C@@H]5C[C@@H]6C[C@@H]6C5)C(=O)N4C3)nc(-c3ccc(F)cc3)cc2c1 [Compound 3046, (1R,3r,5S)-bicyclo[3.1.0]hexan-3-yl((2R,6S,7R,9R,13aS,14aR,16aS,Z)-14a-((cyclopropylsulfonyl)carbamoyl)-2-((3-(4-fluorophenyl)-6-methoxyisoquinolin-1-yl)oxy)-7,9-dimethyl-5,16-dioxo-1,2,3,5,6,7,8,9,10,11,13a,14,14a,15,16,16a-hexadecahydrocyclopropa[e]pyrrolo[1,2-a][1,4]diazacyclopentadecin-6-yl)carbamate]
EC50 [1, 5]: < 5.46 nM
EC50 [2, 6]: < 5.46 nM

[2H]C([2H])([2H])C(OC(=O)N[C@@H]1C(=O)N2C[C@H](Oc3ncc(OC)c4ccccc34)C[C@H]2C(=O)N[C@]2(C(=O)NS(=O)(=O)C3(C)CC3)C[C@H]2/C=C\CC[C@@H](C)C[C@H]1CC)(C([2H])([2H])[2H])C(F)(F)F [Compound 5431]
EC50 [1, 3]: 1.01 to 5 nM
EC50 [2, 4]: 1.01 to 5 nM
